Reference: US20100267765A1, “Pharmaceutical Compositions and Methods for CCR5 Antagonists” (priority 2007, published 2010)
One block for each molecule: values may come before it.

How the values were obtained:
Format in all cases: in vivo, human
LDL cholesterol [1] = assay: Example 1: fasting LDL cholesterol after 24 weeks, OBT plus maraviroc vs OBT plus placebo
Experimental: (§1) The eligible patients were randomised into three groups based on the drug regimens they received.
(§2) Prior to the first dose (Day 1), a fasting assessment was made, in which the following was measured and taken as the baseline measurement: total cholesterol, HDL, LDL, triglycerides, glucose and glycosolated haemoglobin.
(§3) After 24 weeks of treatment or early termination, the same lipid parameters (in particular HDL levels) were measured again.

HDL cholesterol = assay: Example 1: fasting HDL cholesterol after 24 weeks, OBT plus maraviroc vs OBT plus placebo; settings: for Numbers of individuals with maximum % increase in HDL cholesterol in range 10 to >30 (sum, within sensitivity range of assay) / Numbers of individuals with maximum % increase in HDL cholesterol relative to baseline 0-5% / Numbers of individuals with maximum % increase in HDL cholesterol relative to baseline 5-<10% / Numbers of individuals with maximum % increase in HDL cholesterol relative to baseline 10-<20% / Numbers of individuals with maximum % increase in HDL cholesterol relative to baseline 20-<30% / Numbers of individuals with maximum % increase in HDL cholesterol relative to baseline <0% / Numbers of individuals with maximum % increase in HDL cholesterol relative to baseline ≧30% / Mean % Change in HDL / Mean % difference from Group1 (placebo) (95% Confidence Interval) in HDL: 24 weeks
Experimental: as §1, §2
HDL as part of a lipid profile was measured by Covance laboratories (Indianapolis, Ind.).
as §3

[2] = test system: HIV-1 (CXCR4 using viral population); assay: Example 1: HIV-1 RNA viral load reduction after 24 weeks; settings: for Treatment difference in VL (95% confidence interval) / Mean VL reduction: 24 weeks
Source text: The baseline HIV-1 RNA count was taken prior to the first dose (Day 1) and at multiple time points during the 24-week study period.

[3] = test system: total cholesterol/HDL ratio; assay: MERIT study: total cholesterol/HDL ratio; settings: with Combivir; ARV-naive R5 HIV-1 patients; P=0.005 between groups
Source text: (§4) The MERIT study design included a fasting metabolic assessment at baseline and at Weeks 24 and 48 or at early study discontinuation, to evaluate the fasted lipid values in the MERIT study and their potential effect on cardiovascular risk.
(§5) For a 50% smoking rate scenario (which approximates to the smoking rate seen in the DAD Study-Friis-Møller N, et al. N Engl J Med 2003; 349:1993-2003), smoking status (yes/no) was randomly imputed to the study population 500 times, by sampling from a binomial distribution with a probability of success of 0.5. Smoking status was assumed to remain constant for the duration of the study.

fasting lipid parameters = assay: MERIT study: fasting lipoprotein profile (total cholesterol, HDL, LDL, triglycerides); settings: for HDL cholesterol levels on treatment: 48 weeks
Source text: as §4, §5

LDL cholesterol [4] = assay: MERIT study: on-treatment fasting LDL cholesterol vs NCEP cutpoints; settings: with Combivir
Source text: as §4, §5

[5] = MERIT study: 10-year coronary heart disease risk by Framingham equation; settings: for Absolute CHD 10-year risk (mean [SD]): Framingham equation, simulated smoking rate 50%, with Combivir
Source text: as §5

[6] = Group 2: OBT plus maraviroc 150 or 300 mg po QD, N = 63
[7] = Group 3: OBT plus maraviroc 150 or 300 mg po BID, N = 61
[8] = Group 2: OBT plus maraviroc QD, n = 45
[9] = Group 3: OBT plus maraviroc BID, n = 48
[10] = patients already above threshold at baseline excluded, P<0.0001

Molecule: (N-{(1S)-3-[3-isopropyl-5-methyl-4H-1,2,4-triazole-4-yl]-exo-8-azabicyclo[3.2.1]oct-8-yl}-1-phenylpropyl)-4,4-difluorocyclohexanecarboxamide) [maraviroc]
Numbers of individuals with maximum % increase in LDL cholesterol in range 10 to >30 (sum, within sensitivity range of assay) (LDL cholesterol [1]; [6]): 20 | Numbers of individuals with maximum % increase in LDL cholesterol relative to baseline 0-5% (LDL cholesterol [1]; [6]): 2 | Numbers of individuals with maximum % increase in LDL cholesterol relative to baseline 5-<10% (LDL cholesterol [1]; [6]): 5 | Numbers of individuals with maximum % increase in LDL cholesterol relative to baseline 10-<20% (LDL cholesterol [1]; [6]): 9 | Numbers of individuals with maximum % increase in LDL cholesterol relative to baseline 20-<30% (LDL cholesterol [1]; [6]): 4 | Numbers of individuals with maximum % increase in LDL cholesterol relative to baseline <0% (LDL cholesterol [1]; [6]): 11 | Numbers of individuals with maximum % increase in LDL cholesterol relative to baseline ≧30% (LDL cholesterol [1]; [6]): 7 | Numbers of individuals with maximum % increase in LDL cholesterol in range 10 to >30 (sum, within sensitivity range of assay) (LDL cholesterol [1]; [7]): 18 | Numbers of individuals with maximum % increase in LDL cholesterol relative to baseline 0-5% (LDL cholesterol [1]; [7]): 4 | Numbers of individuals with maximum % increase in LDL cholesterol relative to baseline 5-<10% (LDL cholesterol [1]; [7]): 1 | Numbers of individuals with maximum % increase in LDL cholesterol relative to baseline 10-<20% (LDL cholesterol [1]; [7]): 5 | Numbers of individuals with maximum % increase in LDL cholesterol relative to baseline 20-<30% (LDL cholesterol [1]; [7]): 3 | Numbers of individuals with maximum % increase in LDL cholesterol relative to baseline <0% (LDL cholesterol [1]; [7]): 18 | Numbers of individuals with maximum % increase in LDL cholesterol relative to baseline ≧30% (LDL cholesterol [1]; [7]): 10 | LDL levels after treatment compared with placebo (Group 1) (LDL cholesterol [1]; Table 1a): no increase over placebo | Increase in HDL-C levels following treatment (HDL cholesterol; 300 mg BID maraviroc, Tables 2a, 3a): clear dose-related increase | Numbers of individuals with maximum % increase in HDL cholesterol in range 10 to >30 (sum, within sensitivity range of assay) (HDL cholesterol; [6]): 18 | Numbers of individuals with maximum % increase in HDL cholesterol relative to baseline 0-5% (HDL cholesterol; [6]): 6 | Numbers of individuals with maximum % increase in HDL cholesterol relative to baseline 5-<10% (HDL cholesterol; [6]): 4 | Numbers of individuals with maximum % increase in HDL cholesterol relative to baseline 10-<20% (HDL cholesterol; [6]): 7 | Numbers of individuals with maximum % increase in HDL cholesterol relative to baseline 20-<30% (HDL cholesterol; [6]): 2 | Numbers of individuals with maximum % increase in HDL cholesterol relative to baseline <0% (HDL cholesterol; [6]): 17 | Numbers of individuals with maximum % increase in HDL cholesterol relative to baseline ≧30% (HDL cholesterol; [6]): 9 | Mean % Change in HDL (HDL cholesterol; [8]): 13.1% | Mean % difference from Group1 (placebo) (95% Confidence Interval) in HDL (HDL cholesterol; [8]): 10.8 (−3.4, 25.0) % | Numbers of individuals with maximum % increase in HDL cholesterol in range 10 to >30 (sum, within sensitivity range of assay) (HDL cholesterol; [7]): 28 | Numbers of individuals with maximum % increase in HDL cholesterol relative to baseline 0-5% (HDL cholesterol; [7]): 5 | Numbers of individuals with maximum % increase in HDL cholesterol relative to baseline 5-<10% (HDL cholesterol; [7]): 1 | Numbers of individuals with maximum % increase in HDL cholesterol relative to baseline 10-<20% (HDL cholesterol; [7]): 9 | Numbers of individuals with maximum % increase in HDL cholesterol relative to baseline 20-<30% (HDL cholesterol; [7]): 8 | Numbers of individuals with maximum % increase in HDL cholesterol relative to baseline <0% (HDL cholesterol; [7]): 14 | Numbers of individuals with maximum % increase in HDL cholesterol relative to baseline ≧30% (HDL cholesterol; [7]): 11 | Mean % Change in HDL (HDL cholesterol; [9]): 17.4% | Mean % difference from Group1 (placebo) (95% Confidence Interval) in HDL (HDL cholesterol; [9]): 15.1 (1.1, 29.1) % | Treatment difference in VL (95% confidence interval) ([2]; Group 2: OBT plus maraviroc QD vs Group 1 (placebo)): +0.06 log10 copies/mL | Mean VL reduction ([2]; Group 2: OBT plus maraviroc QD): −0.91 log10 copies/mL | Treatment difference in VL (95% confidence interval) ([2]; Group 3: OBT plus maraviroc BID vs Group 1 (placebo)): −0.23 log10 copies/mL | Mean VL reduction ([2]; Group 3: OBT plus maraviroc BID): −1.20 log10 copies/mL | Reduction in viral load (VL) in HIV patients with CXCR4 using viral population ([2]; after 24 weeks, vs Group 1): no statistically significant reduction | Median decrease in the total cholesterol/HDL ratio [3]: −0.54 | HDL cholesterol levels on treatment (fasting lipid parameters; with Combivir): improved

Number of patients who initiated LDL-lowering therapy during the study (LDL cholesterol [4]): six | Relation of change in LDL cholesterol to baseline LDL cholesterol (LDL cholesterol [4]; FIG. 2b): directly related | Patients with high on-treatment LDL cholesterol level (≧160 mg/dL) at both Week 24 and Week 48 (%) (LDL cholesterol [4]; P=0.007): 2.9% | Patients with high on-treatment LDL cholesterol level (≧160 mg/dL) at both Week 24 and Week 48 (n/N) (LDL cholesterol [4]; P=0.007): 10/343 | Patients who developed LDL cholesterol levels during the study that were ≧160 mg/dL (%) (LDL cholesterol [4]; [10]): 9% | Patients who developed LDL cholesterol levels during the study that were ≧160 mg/dL (n/N) (LDL cholesterol [4]; [10]): 31/343 | Percentage of patients with increases in total cholesterol and LDL cholesterol levels at some point after baseline to ≧130 mg/dL (fasting lipid parameters; efavirenz compared with maraviroc, P<0.0001, FIG. 3b): greater percentage | Median maximum changes from baseline in total cholesterol, HDL cholesterol, LDL cholesterol and triglyceride levels (fasting lipid parameters; efavirenz group compared with maraviroc group, with Combivir, FIG. 1b): significantly greater | Absolute CHD 10-year risk (mean [SD]) ([5]; Week 24): 3.0% | Absolute CHD 10-year risk (mean [SD]) ([5]; Week 48): 3.3% | Relative risk of having a CHD event within 10 years ([5]; efavirenz group vs maraviroc group at Week 24 and Week 48, smoking rate 50%, FIG. 5b): consistently higher
Molecule: O=C1Nc2ccc(Cl)cc2[C@@](C#CC2CC2)(C(F)(F)F)O1 [efavirenz]
Median decrease in the total cholesterol/HDL ratio [3]: −0.43 | HDL cholesterol levels on treatment (fasting lipid parameters; with Combivir): improved
